Source: US9458137B2, “Substituted indol-5-ol derivatives and their therapeutical applications” (NantBioScience, Inc., priority 2012, dated 2016)

Columns and labels:
Test in all cases: Kinase panel activity
Format in all cases: biochemical
Conditions in all cases: 0.1 μM, ATP Km
HIPK2(h) = HIPK2(h) (Homo sapiens, UniProt Q9H2X6)
Protocol: (§1) The effect of NTW-3475 on kinase activity was tested for a wide range of kinases and is shown in Table 2: Summary Sheet, Activity % ATP Concentration: Km

PKGIβ(h) = PKGIβ(h) (Homo sapiens, UniProt Q13976)
Protocol: as §1

DYRK2(h) = target: T1, DYRK2(h) (Homo sapiens, UniProt Q92630)
T1 construct: purchased Millipore (KinaseProfiler service)
Protocol: as §1

Yes(h) = Yes(h) (Homo sapiens, UniProt P07947)
Sequence of Yes(h) (P07947 whole entry): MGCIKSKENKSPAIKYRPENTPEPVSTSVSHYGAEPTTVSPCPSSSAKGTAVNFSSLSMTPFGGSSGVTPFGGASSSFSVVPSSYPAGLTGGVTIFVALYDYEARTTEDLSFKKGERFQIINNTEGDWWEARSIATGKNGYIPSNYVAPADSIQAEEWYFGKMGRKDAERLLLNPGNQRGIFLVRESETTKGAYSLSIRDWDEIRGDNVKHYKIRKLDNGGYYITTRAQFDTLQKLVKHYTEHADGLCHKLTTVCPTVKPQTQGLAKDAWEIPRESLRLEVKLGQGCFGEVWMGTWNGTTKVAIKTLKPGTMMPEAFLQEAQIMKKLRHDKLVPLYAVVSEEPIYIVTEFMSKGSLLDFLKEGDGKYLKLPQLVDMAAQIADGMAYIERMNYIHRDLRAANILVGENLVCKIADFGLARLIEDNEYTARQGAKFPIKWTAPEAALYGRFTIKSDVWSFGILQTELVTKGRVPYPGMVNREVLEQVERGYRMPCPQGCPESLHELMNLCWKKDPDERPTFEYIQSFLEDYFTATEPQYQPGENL
Protocol: as §1

cKit(V654A)(h) = cKit(V654A)(h) (Homo sapiens, UniProt P10721, V654A)
Protocol: as §1

ROCK-I(h) = target: T2, ROCK-I(h) (Homo sapiens, UniProt Q13464)
T2 construct: purchased Millipore (KinaseProfiler service)
T2 sequence (Q13464 whole entry): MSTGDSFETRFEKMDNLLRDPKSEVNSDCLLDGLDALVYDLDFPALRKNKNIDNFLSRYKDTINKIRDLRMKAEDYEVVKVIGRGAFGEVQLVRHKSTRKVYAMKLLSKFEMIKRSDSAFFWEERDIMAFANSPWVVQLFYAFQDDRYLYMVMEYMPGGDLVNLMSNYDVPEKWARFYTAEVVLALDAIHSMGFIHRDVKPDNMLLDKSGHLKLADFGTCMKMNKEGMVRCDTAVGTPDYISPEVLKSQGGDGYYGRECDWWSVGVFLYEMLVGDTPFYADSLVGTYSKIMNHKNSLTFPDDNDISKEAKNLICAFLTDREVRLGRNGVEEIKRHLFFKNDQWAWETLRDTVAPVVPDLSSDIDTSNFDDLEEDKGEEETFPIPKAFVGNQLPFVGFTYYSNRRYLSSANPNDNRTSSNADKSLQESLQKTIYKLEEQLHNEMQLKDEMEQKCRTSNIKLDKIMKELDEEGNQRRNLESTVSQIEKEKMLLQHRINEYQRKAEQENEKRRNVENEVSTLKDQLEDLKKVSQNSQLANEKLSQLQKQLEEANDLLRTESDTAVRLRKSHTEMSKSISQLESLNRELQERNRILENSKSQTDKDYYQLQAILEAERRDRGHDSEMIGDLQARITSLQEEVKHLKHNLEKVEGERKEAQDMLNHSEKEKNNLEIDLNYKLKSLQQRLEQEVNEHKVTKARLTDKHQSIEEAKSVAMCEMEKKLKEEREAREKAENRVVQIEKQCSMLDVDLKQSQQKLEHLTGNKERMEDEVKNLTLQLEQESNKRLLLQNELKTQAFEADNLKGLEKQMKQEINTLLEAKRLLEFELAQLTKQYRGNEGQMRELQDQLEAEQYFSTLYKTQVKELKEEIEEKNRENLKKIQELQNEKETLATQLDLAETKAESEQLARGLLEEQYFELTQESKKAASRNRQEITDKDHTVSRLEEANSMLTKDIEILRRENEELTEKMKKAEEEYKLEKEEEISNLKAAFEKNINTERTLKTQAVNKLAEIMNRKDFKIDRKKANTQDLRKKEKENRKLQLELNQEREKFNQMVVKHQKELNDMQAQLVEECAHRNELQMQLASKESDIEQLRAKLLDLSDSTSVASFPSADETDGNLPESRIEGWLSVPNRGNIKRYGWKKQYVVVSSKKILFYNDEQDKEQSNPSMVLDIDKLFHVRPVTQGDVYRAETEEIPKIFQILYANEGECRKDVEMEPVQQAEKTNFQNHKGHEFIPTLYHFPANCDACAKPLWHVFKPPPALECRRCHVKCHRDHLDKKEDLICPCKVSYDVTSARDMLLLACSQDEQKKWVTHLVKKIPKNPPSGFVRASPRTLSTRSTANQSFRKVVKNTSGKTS
Protocol: as §1

MKK6(h) = target: T3, MKK6(h) (Homo sapiens, UniProt P52564)
T3 construct: purchased Millipore (KinaseProfiler service)
Protocol: as §1

HIPK1(h) = HIPK1(h) (Homo sapiens, UniProt Q86Z02)
Protocol: as §1

Rsk3(h) = target: T4, Rsk3(h) (Homo sapiens, UniProt Q15349)
T4 construct: purchased Millipore (KinaseProfiler service)
Protocol: as §1

TAO1(h) = target: T5, TAO1(h) (Homo sapiens, UniProt Q7L7X3)
T5 construct: purchased Millipore (KinaseProfiler service)
Protocol: as §1

STK33(h) = target: T6, STK33(h) (Homo sapiens, UniProt Q9BYT3)
T6 construct: purchased Millipore (KinaseProfiler service)
Protocol: as §1

PKCθ(h) = PKCθ(h) (Homo sapiens, UniProt Q04759)
Protocol: as §1

GRK7(h) = GRK7(h) (Homo sapiens, UniProt Q8WTQ7)
Protocol: as §1

PTK5(h) = target: T7, PTK5(h) (Homo sapiens, UniProt P42685)
T7 construct: purchased Millipore (KinaseProfiler service)
Protocol: as §1

Met(h) = target: T8, Met(h) (Homo sapiens, UniProt P08581)
T8 construct: purchased Millipore (KinaseProfiler service)
Protocol: as §1

TBK1(h) = target: T9, TBK1(h) (Homo sapiens, UniProt Q9UHD2)
T9 construct: purchased Millipore (KinaseProfiler service)
T9 sequence (Q9UHD2 whole entry): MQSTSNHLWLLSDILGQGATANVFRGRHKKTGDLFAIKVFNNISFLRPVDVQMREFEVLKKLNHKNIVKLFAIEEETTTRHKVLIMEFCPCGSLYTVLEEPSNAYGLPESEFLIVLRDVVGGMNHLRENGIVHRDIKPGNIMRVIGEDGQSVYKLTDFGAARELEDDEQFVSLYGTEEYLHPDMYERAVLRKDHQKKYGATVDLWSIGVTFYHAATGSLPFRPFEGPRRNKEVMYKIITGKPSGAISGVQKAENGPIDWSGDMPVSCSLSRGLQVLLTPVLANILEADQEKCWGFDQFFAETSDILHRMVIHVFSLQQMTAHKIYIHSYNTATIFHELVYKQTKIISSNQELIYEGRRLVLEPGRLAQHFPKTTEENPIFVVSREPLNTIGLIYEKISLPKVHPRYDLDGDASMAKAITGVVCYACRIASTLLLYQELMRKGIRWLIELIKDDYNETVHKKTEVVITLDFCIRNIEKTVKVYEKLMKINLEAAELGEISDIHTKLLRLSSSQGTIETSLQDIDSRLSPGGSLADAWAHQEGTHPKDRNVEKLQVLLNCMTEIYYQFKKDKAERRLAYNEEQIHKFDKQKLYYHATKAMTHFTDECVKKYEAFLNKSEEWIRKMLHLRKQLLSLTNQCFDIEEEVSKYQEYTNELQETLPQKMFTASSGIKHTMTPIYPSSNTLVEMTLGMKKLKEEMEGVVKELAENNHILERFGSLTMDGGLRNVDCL
Protocol: as §1

CSK(h) = CSK(h) (Homo sapiens, UniProt P41240)
Protocol: as §1

CDK9/cyclin T1(h) = CDK9/cyclin T1(h) (Homo sapiens, UniProt P50750)
Sequence of CDK9/cyclin T1(h) (P50750 whole entry): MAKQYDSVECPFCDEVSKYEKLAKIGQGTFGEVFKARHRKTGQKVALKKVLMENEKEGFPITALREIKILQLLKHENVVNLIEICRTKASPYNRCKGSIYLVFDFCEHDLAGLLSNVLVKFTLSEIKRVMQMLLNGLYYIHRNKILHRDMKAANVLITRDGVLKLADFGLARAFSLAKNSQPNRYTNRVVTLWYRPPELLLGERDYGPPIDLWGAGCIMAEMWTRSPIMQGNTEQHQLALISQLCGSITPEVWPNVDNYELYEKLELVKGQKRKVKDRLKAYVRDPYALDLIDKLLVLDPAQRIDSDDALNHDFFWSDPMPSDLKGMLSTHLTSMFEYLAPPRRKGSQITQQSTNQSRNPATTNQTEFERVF
Sequence of CDK9/cyclin T1(h) (O60563 whole entry partner): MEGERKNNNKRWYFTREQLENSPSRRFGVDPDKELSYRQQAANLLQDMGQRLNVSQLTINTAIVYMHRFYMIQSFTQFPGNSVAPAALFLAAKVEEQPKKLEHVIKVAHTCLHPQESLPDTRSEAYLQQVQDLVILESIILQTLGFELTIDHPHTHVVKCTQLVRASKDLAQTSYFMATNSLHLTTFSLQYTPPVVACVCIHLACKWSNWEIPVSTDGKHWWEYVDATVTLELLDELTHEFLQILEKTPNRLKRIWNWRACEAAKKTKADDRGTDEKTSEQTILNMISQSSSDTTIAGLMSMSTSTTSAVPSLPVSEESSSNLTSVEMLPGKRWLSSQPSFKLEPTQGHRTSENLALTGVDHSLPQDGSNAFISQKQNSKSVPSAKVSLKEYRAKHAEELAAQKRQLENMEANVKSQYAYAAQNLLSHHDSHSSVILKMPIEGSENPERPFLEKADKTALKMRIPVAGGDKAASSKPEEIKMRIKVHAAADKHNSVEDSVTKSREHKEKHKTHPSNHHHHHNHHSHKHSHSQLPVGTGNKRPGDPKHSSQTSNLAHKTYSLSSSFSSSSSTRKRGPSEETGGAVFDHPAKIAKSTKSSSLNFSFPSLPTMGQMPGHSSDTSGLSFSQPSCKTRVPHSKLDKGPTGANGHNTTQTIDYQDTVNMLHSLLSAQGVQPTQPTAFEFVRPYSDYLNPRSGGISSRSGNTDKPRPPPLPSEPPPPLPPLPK
Protocol: as §1

EGFR(h) = target: T10, EGFR(h) (Homo sapiens, UniProt P00533)
T10 construct: purchased Millipore (KinaseProfiler service)
Protocol: as §1

ALK4(h) = ALK4(h) (Homo sapiens, UniProt P36896)
Protocol: as §1

MST2(h) = MST2(h) (Homo sapiens, UniProt Q13188)
Protocol: as §1

GRK5(h) = GRK5(h) (Homo sapiens, UniProt P34947)
Protocol: as §1

Fer(h) = target: T11, Fer(h) (Homo sapiens, UniProt P16591)
T11 construct: purchased Millipore (KinaseProfiler service)
Protocol: as §1

CK1γ3(h) = CK1γ3(h) (Homo sapiens, UniProt Q9Y6M4)
Protocol: as §1

Met(M1268T)(h) = target: T12, Met(M1268T)(h) (Homo sapiens, UniProt P08581, M1250T)
T12 construct: purchased Millipore (KinaseProfiler service)
Protocol: as §1

PKA(h) = PKA(h) (Homo sapiens, UniProt P17612)
Protocol: as §1

PDGFRα(D842V)(h) = PDGFRα(D842V)(h) (Homo sapiens, UniProt P16234, D842V)
Protocol: as §1

CaMKI(h) = CaMKI(h) (Homo sapiens, UniProt Q14012)
Protocol: as §1

Rsk1(h) = target: T13, Rsk1(h) (Homo sapiens, UniProt Q15418)
T13 construct: purchased Millipore (KinaseProfiler service)
T13 sequence (Q15418 whole entry): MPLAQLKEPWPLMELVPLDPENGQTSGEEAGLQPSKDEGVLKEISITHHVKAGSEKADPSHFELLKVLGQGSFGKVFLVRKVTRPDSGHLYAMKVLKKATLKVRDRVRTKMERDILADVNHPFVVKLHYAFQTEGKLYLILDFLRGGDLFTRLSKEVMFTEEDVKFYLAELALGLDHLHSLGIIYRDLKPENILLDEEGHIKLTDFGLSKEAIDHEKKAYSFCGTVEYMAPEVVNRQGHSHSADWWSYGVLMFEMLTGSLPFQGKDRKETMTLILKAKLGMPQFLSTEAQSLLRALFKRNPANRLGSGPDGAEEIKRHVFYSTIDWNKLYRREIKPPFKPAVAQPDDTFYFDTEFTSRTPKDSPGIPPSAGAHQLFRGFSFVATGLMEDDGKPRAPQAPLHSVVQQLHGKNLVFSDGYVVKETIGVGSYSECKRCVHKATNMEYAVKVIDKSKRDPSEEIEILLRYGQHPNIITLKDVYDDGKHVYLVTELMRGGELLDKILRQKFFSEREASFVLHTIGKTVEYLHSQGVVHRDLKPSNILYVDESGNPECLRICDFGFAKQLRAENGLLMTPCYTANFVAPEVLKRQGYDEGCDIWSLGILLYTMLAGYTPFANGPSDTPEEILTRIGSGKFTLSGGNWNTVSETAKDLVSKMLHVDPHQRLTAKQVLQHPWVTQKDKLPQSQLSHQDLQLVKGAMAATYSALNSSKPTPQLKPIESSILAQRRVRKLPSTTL
Protocol: as §1

FGFR2(h) = FGFR2(h) (Homo sapiens, UniProt P21802)
Protocol: as §1

CDK1/cyclinB(h) = CDK1/cyclinB(h) (Homo sapiens, UniProt P06493)
Protocol: as §1

NEK11(h) = NEK11(h) (Homo sapiens, UniProt Q8NG66)
Protocol: as §1

CHK1(h) = CHK1(h) (Homo sapiens, UniProt O14757)
Sequence of CHK1(h) (O14757 whole entry): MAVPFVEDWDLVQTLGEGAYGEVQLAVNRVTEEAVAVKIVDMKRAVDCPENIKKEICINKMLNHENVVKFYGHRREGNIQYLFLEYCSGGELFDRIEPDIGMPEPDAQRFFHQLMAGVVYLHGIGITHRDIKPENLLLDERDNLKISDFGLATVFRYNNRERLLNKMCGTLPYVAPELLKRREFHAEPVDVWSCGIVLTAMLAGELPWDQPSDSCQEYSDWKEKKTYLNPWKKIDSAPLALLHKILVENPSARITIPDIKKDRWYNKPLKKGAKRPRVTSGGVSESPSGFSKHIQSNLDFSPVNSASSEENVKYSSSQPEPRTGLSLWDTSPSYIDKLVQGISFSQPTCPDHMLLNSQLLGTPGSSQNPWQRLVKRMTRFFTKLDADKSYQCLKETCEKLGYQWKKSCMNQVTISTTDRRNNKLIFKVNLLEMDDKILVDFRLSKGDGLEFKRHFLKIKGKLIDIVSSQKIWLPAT
Protocol: as §1

SGK(h) = target: T14, SGK(h) (Homo sapiens, UniProt O00141)
T14 construct: purchased Millipore (KinaseProfiler service)
Protocol: as §1

Ax1(h) = Ax1(h) (Homo sapiens, UniProt P30530)
Protocol: as §1

MST1(h) = MST1(h) (Homo sapiens, UniProt Q13043)
Protocol: as §1

Mer(h) = target: T15, Mer(h) (Homo sapiens, UniProt Q12866)
T15 construct: purchased Millipore (KinaseProfiler service)
Protocol: as §1

Ab1(M351T)(h) = Ab1(M351T)(h) (Homo sapiens, UniProt P00519, M351T)
Protocol: as §1

CK1γ1(h) = CK1γ1(h) (Homo sapiens, UniProt Q9HCP0)
Protocol: as §1

PKG1α(h) = PKG1α(h) (Homo sapiens, UniProt Q13976)
Protocol: as §1

Activity % (HIPK2(h)): 101%
Activity % (PKGIβ(h)): 111%
Activity % (DYRK2(h)): 96%
Activity % (Yes(h)): 0%
Activity % (cKit(V654A)(h)): 32%
Activity % (ROCK-I(h)): 93%
Activity % (MKK6(h)): 113%
Activity % (HIPK1(h)): 91%
Activity % (Rsk3(h)): 25%
Activity % (TAO1(h)): 65%
Activity % (STK33(h)): 101%
Activity % (PKCθ(h)): 109%
Activity % (GRK7(h)): 97%
Activity % (PTK5(h)): 17%
Activity % (Met(h)): 11%
Activity % (TBK1(h)): 28%
Activity % (CSK(h)): 75%
Activity % (CDK9/cyclin T1(h)): 52%
Activity % (EGFR(h)): 108%
Activity % (ALK4(h)): 28%
Activity % (MST2(h)): 79%
Activity % (GRK5(h)): 100%
Activity % (Fer(h)): 69%
Activity % (CK1γ3(h)): 117%
Activity % (Met(M1268T)(h)): 22%
Activity % (PKA(h)): 111%
Activity % (PDGFRα(D842V)(h)): 17%
Activity % (CaMKI(h)): 90%
Activity % (Rsk1(h)): 84%
Activity % (FGFR2(h)): 0%
Activity % (CDK1/cyclinB(h)): 81%
Activity % (NEK11(h)): 102%
Activity % (CHK1(h)): 113%
Activity % (SGK(h)): 107%
Activity % (Ax1(h)): 34%
Activity % (MST1(h)): 24%
Activity % (Mer(h)): 2%
Activity % (Ab1(M351T)(h)): −2%
Activity % (CK1γ1(h)): 96%
Activity % (PKG1α(h)): 100%
SMILES: Cc1cc2c(F)c(Oc3nc(Nc4cc(C5CC5)[nH]n4)cc(N4CCN(C)CC4)n3)cc(F)c2[nH]1 [NTW-3475]
